Columns and labels:
MMP-14 (MT1-MMP) = target: T1, MMP-14 (MT1-MMP) (Homo sapiens, UniProt P50281); assay: Ki determination with fluorogenic synthetic substrates, recombinant MMP-14; format: biochemical; details: for Ki: Tris/50 mM HCl buffer, pH 6.8, 10 mM CaCl2, 25° C., read-out: affinity constant Ki, MMP-14 MT1-MMP
T1 construct: made in house; host or cells: E. coli
Experimental: (§1) The MMPs used were produced in recombinant form, in an E. coli expression system, and then purified using different types of chromatographies. Apart from stromelysin-3 (MMP-11), the MMPs produces correspond to human sequences. The Stromelysin-3 used in this study corresponds to the murine form.
(§2) The activity of each MMP was determined using two fluorogenic synthetic substrates. The cutoff of said substrates, which generates a fluorescent signal proportional to the quantity of split substrate, enables a precise determination of the kinetic parameters. The affinity constants Ki were calculated using the equation of Horowitz et al, Proc. Natl. Acad. Sci. USA, 1987, 84, p. 6654-6658 [14], accounting for the dependency of the percentage of inhibition measured experimentally according to the concentration of inhibitor, as a function of the enzyme and substrate concentration.
(§3) The experiments for conducted in a Tris/50 mM HCl buffer, pH 6.8, 10 mM CaCl2, 25° C.

[1] = target: T2, MMP-11 (stromelysin-3, mST3) (Mus musculus, UniProt Q02853); assay: Ki determination with fluorogenic synthetic substrates, recombinant MMP-11; format: biochemical, murine; details: for Ki: Tris/50 mM HCl buffer, pH 6.8, 10 mM CaCl2, 25° C., read-out: affinity constant Ki, MMP-11 mST3
T2 construct: made in house; host or cells: E. coli
T2 sequence (Q02853 102-492): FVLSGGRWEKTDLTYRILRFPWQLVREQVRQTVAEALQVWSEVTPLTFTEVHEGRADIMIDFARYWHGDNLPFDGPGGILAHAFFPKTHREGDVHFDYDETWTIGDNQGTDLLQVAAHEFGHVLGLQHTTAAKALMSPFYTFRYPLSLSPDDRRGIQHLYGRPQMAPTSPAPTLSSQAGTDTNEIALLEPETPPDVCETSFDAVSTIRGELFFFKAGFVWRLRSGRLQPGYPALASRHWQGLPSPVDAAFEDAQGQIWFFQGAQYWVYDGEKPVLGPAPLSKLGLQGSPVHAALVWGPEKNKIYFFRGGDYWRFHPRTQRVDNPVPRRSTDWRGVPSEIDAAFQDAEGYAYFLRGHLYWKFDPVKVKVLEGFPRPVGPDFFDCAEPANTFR
Experimental: as §1, §2, §3

MMP-1 (HFC) = target: T3, MMP-1 (HFC) (Homo sapiens, UniProt P03956); assay: Ki determination with fluorogenic synthetic substrates, recombinant MMP-1; format: biochemical; details: for inhibition at 2000 µM / percentage of inhibition, MMP-1: @ 2 mM inhibitor
T3 construct: made in house; host or cells: E. coli
T3 sequence (P03956 100-469): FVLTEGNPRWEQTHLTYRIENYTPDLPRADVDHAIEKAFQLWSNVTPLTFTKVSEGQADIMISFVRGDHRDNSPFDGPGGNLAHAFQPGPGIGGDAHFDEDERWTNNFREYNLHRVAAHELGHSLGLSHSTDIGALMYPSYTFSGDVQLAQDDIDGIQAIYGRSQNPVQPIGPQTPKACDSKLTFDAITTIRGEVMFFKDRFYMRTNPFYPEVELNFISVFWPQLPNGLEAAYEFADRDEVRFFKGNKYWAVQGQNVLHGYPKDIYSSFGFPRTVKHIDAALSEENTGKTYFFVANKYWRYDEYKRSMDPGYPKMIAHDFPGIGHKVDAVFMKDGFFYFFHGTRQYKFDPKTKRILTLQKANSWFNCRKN
Experimental: as §1, §2, §3

MMP-2 (Gel-A) = target: T4, MMP-2 (Gel-A) (Homo sapiens, UniProt P08253); assay: Ki determination with fluorogenic synthetic substrates, recombinant MMP-2; format: biochemical; details: for Ki: Tris/50 mM HCl buffer, pH 6.8, 10 mM CaCl2, 25° C., read-out: affinity constant Ki, MMP-2 Gel-A; for inhibition at 2000 µM: @ 2 mM inhibitor, read-out: percentage of inhibition, MMP-2
T4 construct: made in house; host or cells: E. coli
T4 sequence (P08253 110-660): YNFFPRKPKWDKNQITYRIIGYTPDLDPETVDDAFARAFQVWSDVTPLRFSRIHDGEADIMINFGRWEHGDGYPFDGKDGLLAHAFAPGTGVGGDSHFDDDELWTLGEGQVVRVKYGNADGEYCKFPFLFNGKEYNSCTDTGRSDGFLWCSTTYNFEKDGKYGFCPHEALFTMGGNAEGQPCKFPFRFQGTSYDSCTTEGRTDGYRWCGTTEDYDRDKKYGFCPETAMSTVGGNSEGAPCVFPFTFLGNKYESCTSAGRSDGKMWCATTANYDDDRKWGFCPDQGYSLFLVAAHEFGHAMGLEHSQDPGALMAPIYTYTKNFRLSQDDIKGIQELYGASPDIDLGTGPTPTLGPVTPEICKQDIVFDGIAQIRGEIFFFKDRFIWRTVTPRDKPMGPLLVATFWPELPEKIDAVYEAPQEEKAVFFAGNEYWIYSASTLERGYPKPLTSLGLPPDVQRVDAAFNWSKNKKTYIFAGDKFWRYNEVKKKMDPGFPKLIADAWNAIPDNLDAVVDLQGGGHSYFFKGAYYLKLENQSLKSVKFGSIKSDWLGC
Experimental: as §1, §2, §3

MMP-9 (Gel-B) = target: T5, MMP-9 (Gel-B) (Homo sapiens, UniProt P14780); assay: Ki determination with fluorogenic synthetic substrates, recombinant MMP-9; format: biochemical; details: for Ki: Tris/50 mM HCl buffer, pH 6.8, 10 mM CaCl2, 25° C., read-out: affinity constant Ki, MMP-9 Gel-B; for inhibition at 2000 µM: @ 2 mM inhibitor, read-out: percentage of inhibition, MMP-9
T5 construct: made in house; host or cells: E. coli
Experimental: as §1, §2, §3

MMP-8 (HNC) = target: T6, MMP-8 (HNC) (Homo sapiens, UniProt P22894); assay: Ki determination with fluorogenic synthetic substrates, recombinant MMP-8; format: biochemical; details: for Ki: Tris/50 mM HCl buffer, pH 6.8, 10 mM CaCl2, 25° C., read-out: affinity constant Ki, MMP-8 HNC
T6 construct: made in house; host or cells: E. coli
Experimental: as §1, §2, §3

MMP-7 (Matrilysin) = target: T7, MMP-7 (Matrilysin) (Homo sapiens, UniProt P09237); assay: Ki determination with fluorogenic synthetic substrates, recombinant MMP-7; format: biochemical; details: for Ki: Tris/50 mM HCl buffer, pH 6.8, 10 mM CaCl2, 25° C., read-out: affinity constant Ki, MMP-7 Matrilysin
T7 construct: made in house; host or cells: E. coli
T7 sequence (P09237 95-267): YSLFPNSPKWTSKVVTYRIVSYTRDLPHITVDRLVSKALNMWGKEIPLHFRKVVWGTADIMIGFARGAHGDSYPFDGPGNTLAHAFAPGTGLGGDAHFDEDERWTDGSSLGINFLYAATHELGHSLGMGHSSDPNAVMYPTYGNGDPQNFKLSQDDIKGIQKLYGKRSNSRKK
Experimental: as §1, §2, §3

[2] = read-out: percentage of inhibition, MMP-1

T6 sequence (P22894 101-467): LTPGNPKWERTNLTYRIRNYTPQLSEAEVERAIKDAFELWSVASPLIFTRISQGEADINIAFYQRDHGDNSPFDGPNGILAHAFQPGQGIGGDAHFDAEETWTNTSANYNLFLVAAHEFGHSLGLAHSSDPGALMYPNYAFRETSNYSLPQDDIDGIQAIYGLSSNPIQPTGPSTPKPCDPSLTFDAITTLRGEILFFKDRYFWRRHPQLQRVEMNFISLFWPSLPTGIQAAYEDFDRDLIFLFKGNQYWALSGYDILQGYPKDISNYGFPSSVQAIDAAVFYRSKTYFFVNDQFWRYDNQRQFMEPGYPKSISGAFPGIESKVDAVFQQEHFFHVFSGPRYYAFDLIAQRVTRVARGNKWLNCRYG
T5 sequence (P14780 94-707): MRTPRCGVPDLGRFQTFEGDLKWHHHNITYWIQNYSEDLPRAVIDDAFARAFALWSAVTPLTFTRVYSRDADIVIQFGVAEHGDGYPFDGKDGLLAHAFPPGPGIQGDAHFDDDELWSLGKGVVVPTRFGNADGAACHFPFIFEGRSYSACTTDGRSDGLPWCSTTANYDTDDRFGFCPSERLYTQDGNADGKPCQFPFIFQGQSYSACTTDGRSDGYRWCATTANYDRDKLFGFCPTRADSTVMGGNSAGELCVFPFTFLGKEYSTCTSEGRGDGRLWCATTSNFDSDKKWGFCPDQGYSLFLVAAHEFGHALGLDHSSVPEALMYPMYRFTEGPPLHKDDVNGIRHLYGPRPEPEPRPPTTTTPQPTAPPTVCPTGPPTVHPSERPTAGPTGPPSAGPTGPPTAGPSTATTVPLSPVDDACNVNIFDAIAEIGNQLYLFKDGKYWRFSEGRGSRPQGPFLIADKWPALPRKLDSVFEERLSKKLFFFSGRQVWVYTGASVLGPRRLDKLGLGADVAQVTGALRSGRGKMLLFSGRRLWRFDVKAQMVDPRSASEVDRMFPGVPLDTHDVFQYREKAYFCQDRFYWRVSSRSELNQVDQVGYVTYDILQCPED

SMILES | Ki (MMP-14 (MT1-MMP)) [nM] | Ki [1] [nM] | inhibition at 2000 µM (MMP-1 (HFC); [2]) [%] | Ki (MMP-2 (Gel-A)) [nM] | Ki (MMP-9 (Gel-B)) [nM] | Ki (MMP-8 (HNC)) [nM] | further results
NC(=O)[C@H](Cc1c[nH]c2ccccc12)NC(=O)C(CCCc1ccccc1)CP(=O)(O)C(Cc1ccccc1)NC(=O)OCc1ccccc1 (mixture of isomers) [Compound 15, ZPheΨ(PO2CpH2)pPheTrpNH2] | 105 | 5 | 23 | 20 | 10 | 2.5 | 
NC(=O)C(Cc1c[nH]c2ccccc12)NC(=O)C(CCCc1ccccc1)CP(=O)(O)C(Cc1ccccc1)NC(=O)OCc1ccccc1 (single isomer, unassigned) [Compound 15 R II] | 385 | 9 |  | 42 | 78 | 65 | percentage of inhibition, MMP-7 (MMP-7 (Matrilysin); @ 20 mM inhibitor, listed as R II): 34% @ 20 mM; percentage of inhibition, MMP-1 (MMP-1 (HFC); listed as R II): 16% @ 2 mM
NC(=O)C(Cc1c[nH]c2ccccc12)NC(=O)C(CCCc1ccccc1)CP(=O)(O)C(Cc1ccccc1)NC(=O)OCc1ccccc1 (single isomer, unassigned) [Compound 15 S II] | 2290 | 50 |  | 365 | 250 | 460 | percentage of inhibition, MMP-7 (MMP-7 (Matrilysin); @ 20 mM inhibitor, listed as S II): 29% @ 20 mM; percentage of inhibition, MMP-1 (MMP-1 (HFC); listed as S II): 6% @ 2 mM
NC(=O)C(Cc1c[nH]c2ccccc12)NC(=O)C(CCCc1ccccc1)CP(=O)(O)C(Cc1ccccc1)NC(=O)OCc1ccccc1 (single isomer, unassigned) [Compound 15 S I] | 135 | 5 |  | 45 | 33 | 16 | percentage of inhibition, MMP-7 (MMP-7 (Matrilysin); @ 20 mM inhibitor, listed as S I): 59% @ 20 mM; percentage of inhibition, MMP-1 (MMP-1 (HFC); listed as S I): 17% @ 2 mM
CC(NC(=O)OCc1ccccc1)P(=O)(O)CC(Cc1ccccc1)C(=O)NC(Cc1c[nH]c2ccccc12)C(N)=O (stereo not drawn) [Compound 7] | 2030 | 350 | 24 | 250 | 280 | 240 | 
CC(NC(=O)OCc1ccccc1)P(=O)(O)CC(CCc1ccccc1)C(=O)NC(Cc1c[nH]c2ccccc12)C(N)=O (stereo not drawn) [Compound 8] | 270 | 51 | 23 | 80 | 60 | 20 | 
CC(NC(=O)OCc1ccccc1)P(=O)(O)CC(CCCc1ccccc1)C(=O)NC(Cc1c[nH]c2ccccc12)C(N)=O (stereo not drawn) [Compound 9] | 92 | 100 | 30 | 31 | 23 | 8 | factor by which activity on MMP-8 is multiplied when R3 changes from benzyl to phenylpropyl (MMP-8 (HNC); compound 9 in relation to compound 7): 30
CC(NC(=O)OCc1ccccc1)P(=O)(O)CC(COCc1ccccc1)C(=O)NC(Cc1c[nH]c2ccccc12)C(N)=O (stereo not drawn) [Compound 10] | 550 | 175 | 15 | 250 | 44 | 19 | 
CC(NC(=O)OCc1ccccc1)P(=O)(O)CC(CSCc1ccccc1)C(=O)NC(Cc1c[nH]c2ccccc12)C(N)=O (stereo not drawn) [Compound 11] | 26 | 36 | 45 | 14 | 6 |  | 
CC(CP(=O)(O)C(Cc1ccccc1)NC(=O)OCc1ccccc1)C(=O)NC(Cc1c[nH]c2ccccc12)C(N)=O (stereo not drawn) [Compound 12] |  | 2670 | 20 |  |  |  | inhibition at 10000 µM (MMP-14 (MT1-MMP); @ 10 mM inhibitor, read-out: percentage of inhibition, MMP-14): 0%; inhibition at 2000 µM (MMP-2 (Gel-A)): 0%; inhibition at 2000 µM (MMP-9 (Gel-B)): 0%; inhibition at 1000 µM (MMP-8 (HNC); @ 1 mM inhibitor, read-out: percentage of inhibition, MMP-8): 9%
CC(C)CC(CP(=O)(O)C(Cc1ccccc1)NC(=O)OCc1ccccc1)C(=O)NC(Cc1c[nH]c2ccccc12)C(N)=O (stereo not drawn) [Compound 13] | 192 | 22 |  | 202 | 65 | 40 | Ki (MMP-7 (Matrilysin)): 210 nM; percentage of inhibition, MMP-1 (MMP-1 (HFC)): 45% @ 2 mM
NC(=O)C(Cc1c[nH]c2ccccc12)NC(=O)C(CCc1ccccc1)CP(=O)(O)C(Cc1ccccc1)NC(=O)OCc1ccccc1 (stereo not drawn) [Compound 14] | 660 | 8.8 | 10 | 275 | 110 | 45 | inhibitory power on MMP-11, in words [1]: very powerful
NC(=O)C(Cc1c[nH]c2ccccc12)NC(=O)C(CCCCc1ccccc1)CP(=O)(O)C(Cc1ccccc1)NC(=O)OCc1ccccc1 (stereo not drawn) [Compound 16] | 580 | 33 |  | 145 | 70 | 4.3 | percentage of inhibition, MMP-7 (MMP-7 (Matrilysin); @ 50 mM inhibitor): 65% @ 50 mM; percentage of inhibition, MMP-1 (MMP-1 (HFC)): 5% @ 2 mM
NC(=O)C(Cc1c[nH]c2ccccc12)NC(=O)C(COCc1ccccc1)CP(=O)(O)C(Cc1ccccc1)NC(=O)OCc1ccccc1 (stereo not drawn) [Compound 17] | 545 | 16 | 9 | 85 | 55 | 20 | 
CC(NC(=O)C(CCCc1ccccc1)CP(=O)(O)C(Cc1ccccc1)NC(=O)OCc1ccccc1)C(N)=O (stereo not drawn) [Compound 22] | 2960 |  | 9 |  |  | 240 | inhibition at 1000 µM ([1]; @ 1 mM inhibitor, read-out: percentage of inhibition, MMP-11): 20%; inhibition at 2000 µM (MMP-2 (Gel-A)): 31%; inhibition at 2000 µM (MMP-9 (Gel-B)): 45%
NC(=O)C(Cc1c[nH]c2ccccc12)NC(=O)C(CCCc1ccccc1)CP(=O)(O)C(Cc1ccccc1)NC(=O)c1cc2ccccc2[nH]1 (stereo not drawn) [Compound 30] | 41 | 1.5 |  | 10 | 8 |  | Ki (MMP-7 (Matrilysin)): 605 nM; inhibition at 1 µM (MMP-1 (HFC); @ 1 μM inhibitor, read-out: percentage of inhibition, MMP-1): 87%

Source: patent US6630501B1, “Phosphinic pseudo-peptides that may be used as matrix zinc metalloprotease inhibitors” (Commissariat a l'energie Atomique, priority 1999, dated 2003)
